For this assay, the system named is NCI-H460. Kind of assay: Cytotoxic activity against human non-small lung carcinoma cell line H460. The class given is functional, cell-based.
One may read the IC50 as the midpoint of a concentration-inhibition curve. A higher IC50 goes with weaker potency. Turning to `COc1ccc(/C=C2/C(=O)Oc3ccccc32)cc1`, the IC50 is more than 39 µM. As for `COc1cc(OC)c2c(c1)OC(=O)/C2=C/c1ccc(OC)c(O)c1`, the IC50 is 8.8 µM.

For the compound `COc1cc(/C=C2/C(=O)Oc3ccccc32)cc(OC)c1OC`, 37.7 µM corresponded to half-maximal inhibition (IC50). As for `CC(=O)Oc1ccc(/C=C2/C(=O)Oc3ccc(OC(C)=O)cc32)cc1`, the figure is more than 50 µM.

In turn, `O=C1Oc2ccccc2/C1=C\c1ccc(OC(=O)c2ccccc2)cc1` registered an IC50 of more than 30 µM. The same measure for `O=C1Oc2ccccc2/C1=C\c1ccc(O)cc1`: 10.1 µM.

On to `COc1ccc(/C=C2/C(=O)Oc3ccccc32)cc1O`, for which the IC50 stood at 9.3 µM.

Values taken from ChEMBL document CHEMBL1141060, “A new synthesis of isoaurones: cytotoxic activity of compounds related to the alleged structure of isoaurostatin” (Bioorg Med Chem Lett, 2005).
